From paper PMC7859945 (ACS Omega, 2021)
Counter-ions that a name gives are not always drawn.

Key:
[1] = tested on: various breast cancer cells; settings: various breast cancer cells in vitro; cited from earlier work
[2] = cited from earlier work
[3] = tested on: MYCN-2 and SK-N-Be2c neuroblastoma cells; experiment: In vitro cytotoxicity, SRB assay, statements spanning both neuroblastoma lines; type: cell-based, human; settings: MYCN-2 and SK-N-Be2c cells
[4] = Kinetic solubility study of metformin salts in lipid excipients; settings: for solubility in lipid vehicles: Miglyol 812N and Capryol 90 (text statement for both); for solubility (mg/g) of lipid excipient: medium-chain triglyceride (Miglyol 812N), kinetic solubility, visual inspection
[5] = tested on: triple-negative breast cancer; settings: mouse model of triple-negative breast cancer, 250 mg/kg; cited from earlier work
SK-N-Be2c cells = experiment: In vitro cytotoxicity, SRB assay, SK-N-Be2c cells; type: cell-based; settings: Homo sapiens, SK-N-BE(2)-C, read-out: IC50, cytotoxicity (Be2c)
MYCN-2 cells = experiment: In vitro cytotoxicity, SRB assay, MYCN-2 cells; type: cell-based; settings: Homo sapiens, read-out: IC50, cytotoxicity (MYCN)
cancer cells = settings: read-out: IC50, anticancer activity; cited from earlier work
Solubility in water = type: physicochemical; settings: data not shown

In the case of `CC(C)C[C@H](CN)CC(=O)O.CN(C)C(=N)NC(=N)N` [metformin pregabalin salt], the “improvement of the potency of metformin” value [1] is listed as 2- to 10 fold.
For `CCCCC(CC)COC(=O)CC(C(=O)OCC(CC)CCCC)S(=O)(=O)O.CN(C)C(=N)N=C(N)N` (stereo not drawn) [metformin docusate, Metformin Docusate], the “solubility in medium-chain triglycerides and propylene glycol fatty acid esters” value [2] is listed as > 75 mg/g, the “improvement in anticancer potency (lower IC50) compared to metformin hydrochloride” value [3] is listed as 700- to 4300 fold and the “solubility in lipid vehicles” value [4] is listed as > 200 mg/g. For the same compound, the “solubility (mg/g) of lipid excipient” value [4] was >200 mg/g.
In the case of `CCCC(=O)O.CN(C)C(=N)N=C(N)N` [metformin butyrate], the “anticancer activity versus metformin” value [5] is listed as “significantly higher anticancer activity than metformin” and the “improvement of the potency of metformin” value [1] is listed as 2- to 10 fold.
For `CN(C)C(=N)N=C(N)N` [metformin hydrochloride, Metformin hydrochloride], the IC50 (SK-N-Be2c cells) is listed as > 100 mM, the IC50 (MYCN-2 cells) is listed as > 100 mM and the IC50 (cancer cells) is listed as > 1 mM.
For `CN(C)C(=N)NC(=N)N.NCC1(CC(=O)O)CCCCC1` [metformin gabapentin salt], the “improvement of the potency of metformin” value [1] is given as 2- to 10 fold.
For `CN(C)C(=N)NC(=N)N.C[C@H](CCC(=O)O)[C@H]1CC[C@H]2[C@@H]3[C@H](O)C[C@@H]4C[C@H](O)CC[C@]4(C)[C@H]3C[C@H](O)[C@]12C` [metformin cholate, Metformin Cholate], the water solubility (Solubility in water) was > 1000 µg/mL, the “solubility in lipid vehicles” value [4] was < 5 mg/g and the “solubility (mg/g) of lipid excipient” value [4] was <5 mg/g.
For `CN(C)C(=N)NC(=N)N.NCCCC(=O)O` [metformin gamma-aminobutyric acid salt], the “improvement of the potency of metformin” value [1] is given as 2- to 10 fold.
